Columns and labels:
Format in all cases: biochemical
RET_R813Q = target: T1, RET_R813Q (Homo sapiens, UniProt P07949, R813Q); test: Proqinase Kinase profiling; details: read-out: % inhibition at 100nM
T1 construct: purchased DiscoverX

BRAF = target: T2, BRAF (Homo sapiens, UniProt P15056); test: Proqinase Kinase profiling; details: read-out: % inhibition at 100nM
T2 construct: purchased DiscoverX

LRRK2_R1441C = target: T3, LRRK2_R1441C (Homo sapiens, UniProt Q5S007, R1441C); test: Proqinase Kinase profiling; details: read-out: % inhibition at 100nM
T3 construct: purchased DiscoverX

GRK4 = target: T4, GRK4 (Homo sapiens, UniProt P32298); test: Proqinase Kinase profiling; details: read-out: % inhibition at 100nM
T4 construct: purchased DiscoverX

IRAK1 = target: T5, IRAK1 (Homo sapiens, UniProt P51617); test: Proqinase Kinase profiling; details: read-out: % inhibition at 100nM
T5 construct: purchased DiscoverX

TLK1 = target: T6, TLK1 (Homo sapiens, UniProt Q9UKI8); test: Proqinase Kinase profiling; details: read-out: % inhibition at 100nM
T6 construct: purchased DiscoverX

ADRBK1 = target: T7, ADRBK1 (Homo sapiens, UniProt P25098); test: Proqinase Kinase profiling; details: read-out: % inhibition at 100nM
T7 construct: purchased DiscoverX

ABL1_Y253F = target: T8, ABL1_Y253F (Homo sapiens, UniProt P00519, Y253F); test: Proqinase Kinase profiling; details: read-out: % inhibition at 100nM
T8 construct: purchased DiscoverX

RPS6KA5 = target: T9, RPS6KA5 (Homo sapiens, UniProt O75582); test: Proqinase Kinase profiling; details: read-out: % inhibition at 100nM
T9 construct: purchased DiscoverX

STK39 = target: T10, STK39 (Homo sapiens, UniProt Q9UEW8); test: Proqinase Kinase profiling; details: read-out: % inhibition at 100nM
T10 construct: purchased DiscoverX

NEK11 = target: T11, NEK11 (Homo sapiens, UniProt Q8NG66); test: Proqinase Kinase profiling; details: read-out: % inhibition at 100nM
T11 construct: purchased DiscoverX

TGFbR1 = target: T12, TGFbR1 (Homo sapiens, UniProt P36897); test: Proqinase Kinase profiling; details: read-out: % inhibition at 100nM
T12 construct: purchased DiscoverX

CSNK2A1 = target: T13, CSNK2A1 (Homo sapiens, UniProt P68400); test: Proqinase Kinase profiling; details: read-out: % inhibition at 100nM
T13 construct: purchased DiscoverX

TAOK2 = target: T14, TAOK2 (Homo sapiens, UniProt Q9UL54); test: Proqinase Kinase profiling; details: read-out: % inhibition at 100nM
T14 construct: purchased DiscoverX

CSNK1G3 = target: T15, CSNK1G3 (Homo sapiens, UniProt Q9Y6M4); test: Proqinase Kinase profiling; details: read-out: % inhibition at 100nM
T15 construct: purchased DiscoverX

CSNK1A1 = target: T16, CSNK1A1 (Homo sapiens, UniProt P48729); test: Proqinase Kinase profiling; details: read-out: % inhibition at 100nM
T16 construct: purchased DiscoverX

EGFR_T790M_L858R = target: T17, EGFR_T790M_L858R (Homo sapiens, UniProt P00533, L858R/T790M); test: Proqinase Kinase profiling; details: read-out: % inhibition at 100nM
T17 construct: purchased DiscoverX

BRAF_V600E = target: T18, BRAF_V600E (Homo sapiens, UniProt P15056, V600E); test: Proqinase Kinase profiling; details: read-out: % inhibition at 100nM
T18 construct: purchased DiscoverX

ALK_R1275Q = target: T19, ALK_R1275Q (Homo sapiens, UniProt Q9UM73, R1275Q); test: Proqinase Kinase profiling; details: read-out: % inhibition at 100nM
T19 construct: purchased DiscoverX

CDK16_cyclinY = target: T20, CDK16_cyclinY (Homo sapiens, UniProt Q00536); test: Proqinase Kinase profiling; details: read-out: % inhibition at 100nM
T20 construct: purchased DiscoverX

SYK = target: T21, SYK (Homo sapiens, UniProt P43405); test: Proqinase Kinase profiling; details: read-out: % inhibition at 100nM
T21 construct: purchased DiscoverX

ABL1_F317I = target: T22, ABL1_F317I (Homo sapiens, UniProt P00519, F317I); test: Proqinase Kinase profiling; details: read-out: % inhibition at 100nM
T22 construct: purchased DiscoverX

CDK9_cyclinT1 = target: T23, CDK9_cyclinT1 (Homo sapiens, UniProt P50750); test: Proqinase Kinase profiling; details: read-out: % inhibition at 100nM
T23 construct: purchased DiscoverX

PHKG1 = target: T24, PHKG1 (Homo sapiens, UniProt Q16816); test: Proqinase Kinase profiling; details: read-out: % inhibition at 100nM
T24 construct: purchased DiscoverX

NEK1 = target: T25, NEK1 (Homo sapiens, UniProt Q96PY6); test: Proqinase Kinase profiling; details: read-out: % inhibition at 100nM
T25 construct: purchased DiscoverX

GRK6 = target: T26, GRK6 (Homo sapiens, UniProt P43250); test: Proqinase Kinase profiling; details: read-out: % inhibition at 100nM
T26 construct: purchased DiscoverX

ALK_C1156Y = target: T27, ALK_C1156Y (Homo sapiens, UniProt Q9UM73, C1156Y); test: Proqinase Kinase profiling; details: read-out: % inhibition at 100nM
T27 construct: purchased DiscoverX

SRC = target: T28, SRC (Homo sapiens, UniProt P12931); test: Proqinase Kinase profiling; details: read-out: % inhibition at 100nM
T28 construct: purchased DiscoverX

PRKCE = target: T29, PRKCE (Homo sapiens, UniProt Q02156); test: Proqinase Kinase profiling; details: read-out: % inhibition at 100nM
T29 construct: purchased DiscoverX

FGFR3_K650E = target: T30, FGFR3_K650E (Homo sapiens, UniProt P22607, K650E); test: Proqinase Kinase profiling; details: read-out: % inhibition at 100nM
T30 construct: purchased DiscoverX

RPS6KA4 = target: T31, RPS6KA4 (Homo sapiens, UniProt O75676); test: Proqinase Kinase profiling; details: read-out: % inhibition at 100nM
T31 construct: purchased DiscoverX

SRMS = target: T32, SRMS (Homo sapiens, UniProt Q9H3Y6); test: Proqinase Kinase profiling; details: read-out: % inhibition at 100nM
T32 construct: purchased DiscoverX

EGFR_G719S = target: T33, EGFR_G719S (Homo sapiens, UniProt P00533, G719S); test: Proqinase Kinase profiling; details: read-out: % inhibition at 100nM
T33 construct: purchased DiscoverX

MARK1 = target: T34, MARK1 (Homo sapiens, UniProt Q9P0L2); test: Proqinase Kinase profiling; details: read-out: % inhibition at 100nM
T34 construct: purchased DiscoverX

MAPK8 = target: T35, MAPK8 (Homo sapiens, UniProt P45983); test: Proqinase Kinase profiling; details: read-out: % inhibition at 100nM
T35 construct: purchased DiscoverX

MAP3K8 = target: T36, MAP3K8 (Homo sapiens, UniProt P41279); test: Proqinase Kinase profiling; details: read-out: % inhibition at 100nM
T36 construct: purchased DiscoverX

AURKC = target: T37, AURKC (Homo sapiens, UniProt Q9UQB9); test: Proqinase Kinase profiling; details: read-out: % inhibition at 100nM
T37 construct: purchased DiscoverX

EGFR_E746-A750del = target: T38, EGFR_E746-A750del (Homo sapiens, UniProt P00533, DEL746-750); test: Proqinase Kinase profiling; details: read-out: % inhibition at 100nM
T38 construct: purchased DiscoverX

STK33 = target: T39, STK33 (Homo sapiens, UniProt Q9BYT3); test: Proqinase Kinase profiling; details: read-out: % inhibition at 100nM
T39 construct: purchased DiscoverX

ABL1_T351I = target: T40, ABL1_T351I (Homo sapiens, UniProt P00519, T315I); test: Proqinase Kinase profiling; details: read-out: % inhibition at 100nM
T40 construct: purchased DiscoverX

BMX = target: T41, BMX (Homo sapiens, UniProt P51813); test: Proqinase Kinase profiling; details: read-out: % inhibition at 100nM
T41 construct: purchased DiscoverX

panel of 366–468 kinases = test: Kinase panel selectivity; details: compound at 100nM
Excerpt: Figure 4 ALK2 binding and kinase profile of OD36 and OD52.

T31 sequence (O75676 whole entry): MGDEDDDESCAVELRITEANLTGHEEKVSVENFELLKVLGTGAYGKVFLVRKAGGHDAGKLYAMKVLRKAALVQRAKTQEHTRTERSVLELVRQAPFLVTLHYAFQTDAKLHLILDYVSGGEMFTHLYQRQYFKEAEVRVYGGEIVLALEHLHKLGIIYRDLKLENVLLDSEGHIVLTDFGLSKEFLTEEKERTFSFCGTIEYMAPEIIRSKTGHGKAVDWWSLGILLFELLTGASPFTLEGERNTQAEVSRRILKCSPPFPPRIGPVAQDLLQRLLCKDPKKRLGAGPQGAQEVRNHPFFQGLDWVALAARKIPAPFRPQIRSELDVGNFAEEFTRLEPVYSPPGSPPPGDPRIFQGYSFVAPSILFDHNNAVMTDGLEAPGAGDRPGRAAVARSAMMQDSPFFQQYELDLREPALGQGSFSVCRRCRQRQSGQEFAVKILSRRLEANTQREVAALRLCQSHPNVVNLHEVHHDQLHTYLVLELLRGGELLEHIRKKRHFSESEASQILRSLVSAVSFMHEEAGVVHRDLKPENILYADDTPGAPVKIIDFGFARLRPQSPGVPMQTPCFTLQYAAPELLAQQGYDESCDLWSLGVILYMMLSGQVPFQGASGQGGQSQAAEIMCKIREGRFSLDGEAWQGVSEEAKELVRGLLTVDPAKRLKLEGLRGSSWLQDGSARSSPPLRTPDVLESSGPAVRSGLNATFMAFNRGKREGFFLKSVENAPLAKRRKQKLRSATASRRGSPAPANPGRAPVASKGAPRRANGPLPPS
T24 sequence (Q16816 whole entry): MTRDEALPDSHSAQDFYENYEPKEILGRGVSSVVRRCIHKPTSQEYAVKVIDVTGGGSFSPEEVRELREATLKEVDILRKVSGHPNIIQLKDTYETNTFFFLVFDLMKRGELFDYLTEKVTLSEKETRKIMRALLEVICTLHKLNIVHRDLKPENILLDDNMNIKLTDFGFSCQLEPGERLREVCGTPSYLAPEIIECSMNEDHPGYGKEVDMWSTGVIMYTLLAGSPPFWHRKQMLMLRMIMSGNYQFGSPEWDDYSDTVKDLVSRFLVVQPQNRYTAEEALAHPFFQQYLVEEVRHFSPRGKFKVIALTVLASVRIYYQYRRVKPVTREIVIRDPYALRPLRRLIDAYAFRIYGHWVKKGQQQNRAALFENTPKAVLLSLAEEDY
T38 sequence (P00533 with tags, fused parts or gaps DEL746-750 limits assumed): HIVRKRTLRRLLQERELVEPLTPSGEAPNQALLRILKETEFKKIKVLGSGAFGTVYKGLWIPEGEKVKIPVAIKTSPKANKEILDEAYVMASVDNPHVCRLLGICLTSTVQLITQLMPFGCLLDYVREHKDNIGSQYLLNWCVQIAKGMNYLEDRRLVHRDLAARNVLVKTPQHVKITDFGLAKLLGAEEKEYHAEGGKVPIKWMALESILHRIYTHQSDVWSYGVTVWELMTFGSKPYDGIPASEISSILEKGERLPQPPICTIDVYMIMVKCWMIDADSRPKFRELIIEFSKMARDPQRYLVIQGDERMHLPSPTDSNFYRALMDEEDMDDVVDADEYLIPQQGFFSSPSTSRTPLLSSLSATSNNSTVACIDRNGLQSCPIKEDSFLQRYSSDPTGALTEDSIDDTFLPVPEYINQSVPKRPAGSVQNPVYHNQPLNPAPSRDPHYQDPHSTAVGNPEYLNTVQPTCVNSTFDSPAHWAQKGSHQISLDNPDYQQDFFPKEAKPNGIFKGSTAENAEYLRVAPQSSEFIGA
T37 sequence (Q9UQB9 whole entry): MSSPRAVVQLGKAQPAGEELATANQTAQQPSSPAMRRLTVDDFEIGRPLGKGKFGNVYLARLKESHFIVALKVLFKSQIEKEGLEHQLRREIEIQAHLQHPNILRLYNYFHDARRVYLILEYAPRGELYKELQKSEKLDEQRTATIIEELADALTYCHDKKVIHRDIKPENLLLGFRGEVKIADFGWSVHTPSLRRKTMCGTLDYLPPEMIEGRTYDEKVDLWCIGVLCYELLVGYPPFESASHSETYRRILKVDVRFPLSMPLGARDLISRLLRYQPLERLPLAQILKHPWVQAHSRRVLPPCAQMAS
T25 sequence (Q96PY6 whole entry): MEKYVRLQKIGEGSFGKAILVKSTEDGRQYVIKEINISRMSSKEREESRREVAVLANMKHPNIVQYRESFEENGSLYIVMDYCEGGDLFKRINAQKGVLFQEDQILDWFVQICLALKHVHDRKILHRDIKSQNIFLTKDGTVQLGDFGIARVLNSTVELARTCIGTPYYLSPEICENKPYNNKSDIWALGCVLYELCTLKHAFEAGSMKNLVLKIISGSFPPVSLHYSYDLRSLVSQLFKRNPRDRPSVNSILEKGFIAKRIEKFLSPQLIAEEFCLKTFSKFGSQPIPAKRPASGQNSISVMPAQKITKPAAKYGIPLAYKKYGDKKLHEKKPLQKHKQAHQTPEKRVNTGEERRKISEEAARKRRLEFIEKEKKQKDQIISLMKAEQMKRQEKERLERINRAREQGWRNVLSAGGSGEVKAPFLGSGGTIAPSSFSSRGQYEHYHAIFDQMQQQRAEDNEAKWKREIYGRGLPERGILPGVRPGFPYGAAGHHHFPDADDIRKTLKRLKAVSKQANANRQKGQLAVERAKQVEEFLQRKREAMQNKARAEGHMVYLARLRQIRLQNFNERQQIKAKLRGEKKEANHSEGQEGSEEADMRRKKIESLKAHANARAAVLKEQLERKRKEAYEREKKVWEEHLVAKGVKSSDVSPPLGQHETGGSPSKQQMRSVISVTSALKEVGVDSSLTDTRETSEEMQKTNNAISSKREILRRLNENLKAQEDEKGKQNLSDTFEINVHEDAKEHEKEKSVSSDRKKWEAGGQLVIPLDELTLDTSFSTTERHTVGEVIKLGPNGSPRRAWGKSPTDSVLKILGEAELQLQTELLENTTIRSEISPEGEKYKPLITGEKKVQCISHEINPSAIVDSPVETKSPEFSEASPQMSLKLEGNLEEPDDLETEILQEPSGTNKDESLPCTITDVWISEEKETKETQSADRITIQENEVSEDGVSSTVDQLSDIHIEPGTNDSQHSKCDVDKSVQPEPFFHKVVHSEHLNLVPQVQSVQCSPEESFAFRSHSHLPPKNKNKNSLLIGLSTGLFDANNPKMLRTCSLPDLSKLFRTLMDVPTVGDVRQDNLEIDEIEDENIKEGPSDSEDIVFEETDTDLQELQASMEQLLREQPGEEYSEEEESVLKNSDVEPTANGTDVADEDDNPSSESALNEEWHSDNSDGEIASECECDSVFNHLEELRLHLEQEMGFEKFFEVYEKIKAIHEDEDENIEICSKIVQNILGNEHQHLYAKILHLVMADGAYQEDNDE
T34 sequence (Q9P0L2 whole entry): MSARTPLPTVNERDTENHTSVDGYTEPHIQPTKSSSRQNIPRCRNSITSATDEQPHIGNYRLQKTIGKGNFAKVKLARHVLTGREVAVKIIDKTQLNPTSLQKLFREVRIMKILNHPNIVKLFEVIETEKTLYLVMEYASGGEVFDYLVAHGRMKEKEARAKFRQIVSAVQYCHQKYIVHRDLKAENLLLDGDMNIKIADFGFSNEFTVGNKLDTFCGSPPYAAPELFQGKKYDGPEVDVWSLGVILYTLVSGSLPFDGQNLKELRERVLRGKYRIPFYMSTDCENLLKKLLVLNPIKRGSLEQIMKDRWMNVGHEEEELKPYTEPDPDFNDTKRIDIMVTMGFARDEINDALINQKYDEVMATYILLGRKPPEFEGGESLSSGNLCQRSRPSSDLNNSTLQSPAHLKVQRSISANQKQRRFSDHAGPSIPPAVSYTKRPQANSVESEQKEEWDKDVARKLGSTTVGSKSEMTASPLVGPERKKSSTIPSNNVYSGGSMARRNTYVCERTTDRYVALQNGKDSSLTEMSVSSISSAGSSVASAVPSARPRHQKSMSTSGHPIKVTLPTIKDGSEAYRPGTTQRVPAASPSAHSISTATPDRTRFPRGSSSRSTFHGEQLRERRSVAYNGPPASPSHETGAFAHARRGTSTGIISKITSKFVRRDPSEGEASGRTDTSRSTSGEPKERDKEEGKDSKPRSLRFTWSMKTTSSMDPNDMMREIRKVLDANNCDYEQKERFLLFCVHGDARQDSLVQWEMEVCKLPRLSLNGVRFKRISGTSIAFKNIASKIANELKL
T29 sequence (Q02156 whole entry): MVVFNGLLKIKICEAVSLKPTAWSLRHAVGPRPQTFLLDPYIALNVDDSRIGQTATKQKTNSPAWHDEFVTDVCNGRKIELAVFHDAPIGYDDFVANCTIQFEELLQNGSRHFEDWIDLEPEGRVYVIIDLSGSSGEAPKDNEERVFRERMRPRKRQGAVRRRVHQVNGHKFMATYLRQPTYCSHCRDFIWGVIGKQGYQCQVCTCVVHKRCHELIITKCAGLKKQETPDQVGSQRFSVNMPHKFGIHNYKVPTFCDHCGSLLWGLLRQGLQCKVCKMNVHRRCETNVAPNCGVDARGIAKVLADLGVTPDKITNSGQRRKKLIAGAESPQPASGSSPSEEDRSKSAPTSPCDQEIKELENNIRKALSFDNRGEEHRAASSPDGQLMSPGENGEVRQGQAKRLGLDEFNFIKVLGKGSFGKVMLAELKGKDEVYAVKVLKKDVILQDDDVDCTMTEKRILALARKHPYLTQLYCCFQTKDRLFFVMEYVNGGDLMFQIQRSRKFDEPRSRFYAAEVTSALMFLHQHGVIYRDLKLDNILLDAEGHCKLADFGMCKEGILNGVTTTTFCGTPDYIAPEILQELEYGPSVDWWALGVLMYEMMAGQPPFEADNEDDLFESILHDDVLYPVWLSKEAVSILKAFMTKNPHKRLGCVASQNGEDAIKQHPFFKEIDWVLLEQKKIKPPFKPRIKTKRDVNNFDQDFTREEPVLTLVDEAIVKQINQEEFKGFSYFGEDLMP

Compound `Clc1cc2cc(c1)-c1cnn3ccc(nc13)NCCOCCO2` [OD36] has an inhibition at 0.1 µM (RET_R813Q) of 45%, an inhibition at 0.1 µM (BRAF) of 20% and an inhibition at 0.1 µM (LRRK2_R1441C) of 56%. It also gave an inhibition at 0.1 µM (GRK4) of 16%, an inhibition at 0.1 µM (IRAK1) of 9% and an inhibition at 0.1 µM (TLK1) of 17%. The inhibition at 0.1 µM (ADRBK1) was 4%, the inhibition at 0.1 µM (ABL1_Y253F) was 3% and the inhibition at 0.1 µM (RPS6KA5) was -3%. The inhibition at 0.1 µM (STK39) was 0%, the inhibition at 0.1 µM (NEK11) was 4% and the inhibition at 0.1 µM (TGFbR1) was 5%. The inhibition at 0.1 µM (CSNK2A1) was -7%, the inhibition at 0.1 µM (TAOK2) was 15% and the inhibition at 0.1 µM (CSNK1G3) was 3%. It also gave an inhibition at 0.1 µM (CSNK1A1) of -6%, an inhibition at 0.1 µM (EGFR_T790M_L858R) of -13% and an inhibition at 0.1 µM (BRAF_V600E) of 10%. For the same compound, the inhibition at 0.1 µM (ALK_R1275Q) was 6%, the inhibition at 0.1 µM (CDK16_cyclinY) was 12% and the inhibition at 0.1 µM (SYK) was -1%. The inhibition at 0.1 µM (ABL1_F317I) was 8%, the inhibition at 0.1 µM (CDK9_cyclinT1) was 17% and the inhibition at 0.1 µM (PHKG1) was 8%. For the same compound, the inhibition at 0.1 µM (NEK1) was 14%, the inhibition at 0.1 µM (GRK6) was 10% and the inhibition at 0.1 µM (ALK_C1156Y) was 13%. It also gave an inhibition at 0.1 µM (SRC) of 15%, an inhibition at 0.1 µM (PRKCE) of -1% and an inhibition at 0.1 µM (FGFR3_K650E) of 8%. It also gave an inhibition at 0.1 µM (RPS6KA4) of 19%, an inhibition at 0.1 µM (SRMS) of 11% and an inhibition at 0.1 µM (EGFR_G719S) of 10%. It also gave an inhibition at 0.1 µM (MARK1) of 11%, an inhibition at 0.1 µM (MAPK8) of -6% and an inhibition at 0.1 µM (MAP3K8) of 5%. It also gave an inhibition at 0.1 µM (AURKC) of 13%, an inhibition at 0.1 µM (EGFR_E746-A750del) of 9% and an inhibition at 0.1 µM (STK33) of -1%. The inhibition at 0.1 µM (ABL1_T351I) was 9%, the inhibition at 0.1 µM (BMX) was 9% and the “Selectivity: % of tested kinases inhibited over 50%” value (panel of 366–468 kinases) was 4.3%.
In the case of `Cc1cc2cc(c1)-c1cnn3ccc(nc13)NCCNC(=O)CCN(C)C2` [OD52], the inhibition at 0.1 µM (RET_R813Q) was 37%, the inhibition at 0.1 µM (BRAF) was 16% and the inhibition at 0.1 µM (LRRK2_R1441C) was 16%. The inhibition at 0.1 µM (GRK4) was 16%, the inhibition at 0.1 µM (IRAK1) was 16% and the inhibition at 0.1 µM (TLK1) was 16%. For the same compound, the inhibition at 0.1 µM (ADRBK1) was 10%, the inhibition at 0.1 µM (ABL1_Y253F) was 7% and the inhibition at 0.1 µM (RPS6KA5) was 7%. It also gave an inhibition at 0.1 µM (STK39) of 5%, an inhibition at 0.1 µM (NEK11) of 4% and an inhibition at 0.1 µM (TGFbR1) of 4%. For the same compound, the inhibition at 0.1 µM (CSNK2A1) was 3%, the inhibition at 0.1 µM (TAOK2) was 3% and the inhibition at 0.1 µM (CSNK1G3) was 2%. It also gave an inhibition at 0.1 µM (CSNK1A1) of 1%, an inhibition at 0.1 µM (EGFR_T790M_L858R) of 0% and an inhibition at 0.1 µM (BRAF_V600E) of -1%. For the same compound, the inhibition at 0.1 µM (ALK_R1275Q) was -1%, the inhibition at 0.1 µM (CDK16_cyclinY) was -2% and the inhibition at 0.1 µM (SYK) was -2%. For the same compound, the inhibition at 0.1 µM (ABL1_F317I) was -3%, the inhibition at 0.1 µM (CDK9_cyclinT1) was -3% and the inhibition at 0.1 µM (PHKG1) was -4%. The inhibition at 0.1 µM (NEK1) was -4%, the inhibition at 0.1 µM (GRK6) was -5% and the inhibition at 0.1 µM (ALK_C1156Y) was -6%. For the same compound, the inhibition at 0.1 µM (SRC) was -6%, the inhibition at 0.1 µM (PRKCE) was -7% and the inhibition at 0.1 µM (FGFR3_K650E) was -7%. The inhibition at 0.1 µM (RPS6KA4) was -8%, the inhibition at 0.1 µM (SRMS) was -9% and the inhibition at 0.1 µM (EGFR_G719S) was -9%. It also gave an inhibition at 0.1 µM (MARK1) of -9%, an inhibition at 0.1 µM (MAPK8) of -9% and an inhibition at 0.1 µM (MAP3K8) of -10%. It also gave an inhibition at 0.1 µM (AURKC) of -11%, an inhibition at 0.1 µM (EGFR_E746-A750del) of -11% and an inhibition at 0.1 µM (STK33) of -13%. The inhibition at 0.1 µM (ABL1_T351I) was -15%, the inhibition at 0.1 µM (BMX) was -34% and the “Selectivity: % of tested kinases inhibited over 50%” value (panel of 366–468 kinases) was 0.9%.
